Reference: US20260207585A1, “METHODS AND COMPOSITIONS FOR THE TREATMENT OF PARKINSON'S DISEASE, HUNTINGTON'S DISEASE, AMYOTROPHIC LATERAL SCLEROSIS, AND LEARNING DISORDERS” (Cedars-Sinai Medical Center, priority 2022, published 2026)

Columns and labels:
Type in all cases: biochemical
DNMT3a = DNMT3a (Homo sapiens, UniProt Q9Y6K1); assay: Methyltransferase inhibition panel: DNMT3a; conditions: read-out: Control IC50*
Procedure: (§1) The ability of ETP69 to inhibit methyltransferases was tested.

DNMT3b = DNMT3b (Homo sapiens, UniProt Q9UBC3); assay: Methyltransferase inhibition panel: DNMT3b; conditions: read-out: Control IC50*
Procedure: as §1

DNMT3b/3L = DNMT3b/3L (Homo sapiens, UniProt Q9UBC3); assay: Methyltransferase inhibition panel: DNMT3b/3L; conditions: read-out: Control IC50*
Procedure: as §1

GLP = target: T1, GLP (Homo sapiens, UniProt Q9H9B1); assay: Methyltransferase inhibition panel: GLP; conditions: read-out: Control IC50*
T1 sequence (Q9H9B1 1-1298): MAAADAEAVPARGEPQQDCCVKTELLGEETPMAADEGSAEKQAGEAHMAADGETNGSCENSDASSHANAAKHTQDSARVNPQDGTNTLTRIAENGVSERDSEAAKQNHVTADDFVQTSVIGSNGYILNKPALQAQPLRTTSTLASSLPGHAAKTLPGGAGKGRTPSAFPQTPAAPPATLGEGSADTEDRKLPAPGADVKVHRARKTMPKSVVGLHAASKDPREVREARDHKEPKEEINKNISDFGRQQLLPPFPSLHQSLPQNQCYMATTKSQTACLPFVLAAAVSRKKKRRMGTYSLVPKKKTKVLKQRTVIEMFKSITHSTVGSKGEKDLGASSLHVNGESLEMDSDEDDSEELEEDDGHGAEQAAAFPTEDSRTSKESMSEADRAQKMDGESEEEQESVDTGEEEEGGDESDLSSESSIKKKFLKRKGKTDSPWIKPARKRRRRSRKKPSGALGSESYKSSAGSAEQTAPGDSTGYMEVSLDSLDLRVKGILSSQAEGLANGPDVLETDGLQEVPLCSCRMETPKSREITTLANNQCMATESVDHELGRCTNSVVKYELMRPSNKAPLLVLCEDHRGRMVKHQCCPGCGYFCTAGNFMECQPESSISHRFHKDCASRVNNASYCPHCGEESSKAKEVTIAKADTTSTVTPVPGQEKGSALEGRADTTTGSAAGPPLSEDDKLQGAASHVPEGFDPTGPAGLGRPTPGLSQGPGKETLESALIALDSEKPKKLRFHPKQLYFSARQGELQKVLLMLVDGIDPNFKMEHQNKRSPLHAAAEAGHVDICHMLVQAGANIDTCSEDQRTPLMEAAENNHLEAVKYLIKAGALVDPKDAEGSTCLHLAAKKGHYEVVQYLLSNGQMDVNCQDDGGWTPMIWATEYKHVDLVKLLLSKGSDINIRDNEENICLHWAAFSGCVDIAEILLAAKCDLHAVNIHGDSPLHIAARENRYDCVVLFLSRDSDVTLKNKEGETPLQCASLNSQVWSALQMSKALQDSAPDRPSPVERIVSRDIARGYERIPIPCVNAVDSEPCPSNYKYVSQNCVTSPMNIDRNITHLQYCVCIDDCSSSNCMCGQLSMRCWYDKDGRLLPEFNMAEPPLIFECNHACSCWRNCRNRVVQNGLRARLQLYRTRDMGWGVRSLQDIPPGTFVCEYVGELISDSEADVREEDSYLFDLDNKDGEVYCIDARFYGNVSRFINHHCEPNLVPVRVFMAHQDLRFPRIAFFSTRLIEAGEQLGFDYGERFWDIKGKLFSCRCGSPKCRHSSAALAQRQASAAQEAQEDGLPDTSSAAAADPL
Procedure: as §1

METTL21A = METTL21A (Homo sapiens, UniProt Q8WXB1); assay: Methyltransferase inhibition panel: METTL21A; conditions: control compound; substrate HSPA8-[CTD] 2.5 μM
Procedure: as §1

MLL1 Complex = MLL1 Complex (Homo sapiens, UniProt Q03164); assay: Methyltransferase inhibition panel: MLL1 Complex; conditions: control compound; substrate Nucleosomes 0.05 mg/mL
Procedure: as §1

MLL2 Complex = MLL2 Complex (Homo sapiens, UniProt O14686); assay: Methyltransferase inhibition panel: MLL2 Complex; conditions: control compound; substrate Nucleosomes 0.05 mg/mL
Procedure: as §1

MLL3 Complex = MLL3 Complex (Homo sapiens, UniProt Q8NEZ4); assay: Methyltransferase inhibition panel: MLL3 Complex; conditions: control compound; substrate Nucleosomes 0.05 mg/mL
Procedure: as §1

MLL4 Complex = MLL4 Complex (Homo sapiens, UniProt Q9UMN6); assay: Methyltransferase inhibition panel: MLL4 Complex; conditions: control compound; substrate Nucleosomes 0.05 mg/mL
Procedure: as §1

NRMT1 = target: T2, NRMT1 (Homo sapiens, UniProt Q9BV86); assay: Methyltransferase inhibition panel: NRMT1; conditions: control compound; substrate RCC1 5 μM
T2 sequence (Q9BV86 1-223): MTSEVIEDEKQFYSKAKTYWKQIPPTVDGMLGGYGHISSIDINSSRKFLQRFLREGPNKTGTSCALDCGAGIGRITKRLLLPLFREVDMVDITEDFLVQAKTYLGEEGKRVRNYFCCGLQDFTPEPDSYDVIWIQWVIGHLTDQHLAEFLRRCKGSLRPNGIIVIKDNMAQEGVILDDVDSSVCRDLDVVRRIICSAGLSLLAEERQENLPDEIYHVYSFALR
Procedure: as §1

NSD1 = NSD1 (Homo sapiens, UniProt Q96L73); assay: Methyltransferase inhibition panel: NSD1; conditions: control compound; substrate Nucleosomes 0.05 mg/mL
Procedure: as §1

PRMT3 = PRMT3 (Homo sapiens, UniProt O60678); assay: Methyltransferase inhibition panel: PRMT3; conditions: control compound; substrate Histone H4 5 μM
Procedure: as §1

PRMT6 = PRMT6 (Homo sapiens, UniProt Q96LA8); assay: Methyltransferase inhibition panel: PRMT6; conditions: control compound; substrate GST-GAR 5 μM
Procedure: as §1

SET1b Complex = SET1b Complex (Homo sapiens, UniProt Q9UPS6); assay: Methyltransferase inhibition panel: SET1b Complex; conditions: control compound; substrate Core Histone 0.05 mg/mL
Procedure: as §1

SET7/9 = target: T3, SET7/9 (Homo sapiens, UniProt Q8WTS6); assay: Methyltransferase inhibition panel: SET7/9; conditions: control compound; substrate Core Histone 0.05 mg/mL
T3 sequence (Q8WTS6 1-366): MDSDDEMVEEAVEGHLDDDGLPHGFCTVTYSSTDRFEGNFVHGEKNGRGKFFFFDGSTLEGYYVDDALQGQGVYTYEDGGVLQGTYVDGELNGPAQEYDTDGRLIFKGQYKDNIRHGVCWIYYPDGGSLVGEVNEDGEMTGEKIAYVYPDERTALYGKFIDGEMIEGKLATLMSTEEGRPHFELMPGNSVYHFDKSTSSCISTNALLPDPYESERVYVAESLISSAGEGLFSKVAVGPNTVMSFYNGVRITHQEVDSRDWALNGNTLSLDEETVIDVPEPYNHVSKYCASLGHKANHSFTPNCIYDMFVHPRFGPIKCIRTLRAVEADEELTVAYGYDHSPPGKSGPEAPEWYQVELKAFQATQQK
Procedure: as §1

SETDB1 = SETDB1 (Homo sapiens, UniProt Q15047); assay: Methyltransferase inhibition panel: SETDB1; conditions: control compound; substrate Histone H3 5 μM
Procedure: as §1

SETD2 = SETD2 (Homo sapiens, UniProt Q9BYW2); assay: Methyltransferase inhibition panel: SETD2; conditions: control compound; substrate Nucleosomes 0.05 mg/mL
Procedure: as §1

SMYD3 = target: T4, SMYD3 (Homo sapiens, UniProt Q9H7B4); assay: Methyltransferase inhibition panel: SMYD3; conditions: control compound; substrate MEKK2 0.5 μM
T4 sequence (Q9H7B4 1-428): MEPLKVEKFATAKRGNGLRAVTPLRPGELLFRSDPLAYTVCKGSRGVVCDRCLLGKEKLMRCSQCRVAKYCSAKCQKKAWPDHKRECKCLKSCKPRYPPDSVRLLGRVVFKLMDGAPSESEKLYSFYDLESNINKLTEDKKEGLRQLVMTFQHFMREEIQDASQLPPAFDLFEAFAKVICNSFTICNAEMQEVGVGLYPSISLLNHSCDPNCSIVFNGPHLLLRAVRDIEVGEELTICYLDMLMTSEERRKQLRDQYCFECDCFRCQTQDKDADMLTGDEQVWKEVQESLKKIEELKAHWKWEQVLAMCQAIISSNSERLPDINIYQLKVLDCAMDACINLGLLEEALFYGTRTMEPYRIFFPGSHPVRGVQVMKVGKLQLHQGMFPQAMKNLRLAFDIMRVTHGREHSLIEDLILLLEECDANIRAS
Procedure: as §1

SUV39H2 = SUV39H2 (Homo sapiens, UniProt Q9H5I1); assay: Methyltransferase inhibition panel: SUV39H2; conditions: control compound; substrate Histone H3 5 μM
Procedure: as §1

SUV420H1TV2 = SUV420H1TV2 (Homo sapiens, UniProt Q4FZB7); assay: Methyltransferase inhibition panel: SUV420H1TV2; conditions: control compound; substrate Nucleosomes 0.05 mg/mL
Procedure: as §1

ASH1L = ASH1L (Homo sapiens, UniProt Q9NR48); assay: Methyltransferase inhibition panel: ASH1L; conditions: control compound; substrate Nucleosomes 0.05 mg/mL
Procedure: as §1

NSD3 = target: T5, NSD3 (Homo sapiens, UniProt Q9BZ95); assay: Methyltransferase inhibition panel: NSD3; conditions: control compound; substrate Nucleosomes 0.05 mg/mL
T5 sequence (Q9BZ95 1-1437): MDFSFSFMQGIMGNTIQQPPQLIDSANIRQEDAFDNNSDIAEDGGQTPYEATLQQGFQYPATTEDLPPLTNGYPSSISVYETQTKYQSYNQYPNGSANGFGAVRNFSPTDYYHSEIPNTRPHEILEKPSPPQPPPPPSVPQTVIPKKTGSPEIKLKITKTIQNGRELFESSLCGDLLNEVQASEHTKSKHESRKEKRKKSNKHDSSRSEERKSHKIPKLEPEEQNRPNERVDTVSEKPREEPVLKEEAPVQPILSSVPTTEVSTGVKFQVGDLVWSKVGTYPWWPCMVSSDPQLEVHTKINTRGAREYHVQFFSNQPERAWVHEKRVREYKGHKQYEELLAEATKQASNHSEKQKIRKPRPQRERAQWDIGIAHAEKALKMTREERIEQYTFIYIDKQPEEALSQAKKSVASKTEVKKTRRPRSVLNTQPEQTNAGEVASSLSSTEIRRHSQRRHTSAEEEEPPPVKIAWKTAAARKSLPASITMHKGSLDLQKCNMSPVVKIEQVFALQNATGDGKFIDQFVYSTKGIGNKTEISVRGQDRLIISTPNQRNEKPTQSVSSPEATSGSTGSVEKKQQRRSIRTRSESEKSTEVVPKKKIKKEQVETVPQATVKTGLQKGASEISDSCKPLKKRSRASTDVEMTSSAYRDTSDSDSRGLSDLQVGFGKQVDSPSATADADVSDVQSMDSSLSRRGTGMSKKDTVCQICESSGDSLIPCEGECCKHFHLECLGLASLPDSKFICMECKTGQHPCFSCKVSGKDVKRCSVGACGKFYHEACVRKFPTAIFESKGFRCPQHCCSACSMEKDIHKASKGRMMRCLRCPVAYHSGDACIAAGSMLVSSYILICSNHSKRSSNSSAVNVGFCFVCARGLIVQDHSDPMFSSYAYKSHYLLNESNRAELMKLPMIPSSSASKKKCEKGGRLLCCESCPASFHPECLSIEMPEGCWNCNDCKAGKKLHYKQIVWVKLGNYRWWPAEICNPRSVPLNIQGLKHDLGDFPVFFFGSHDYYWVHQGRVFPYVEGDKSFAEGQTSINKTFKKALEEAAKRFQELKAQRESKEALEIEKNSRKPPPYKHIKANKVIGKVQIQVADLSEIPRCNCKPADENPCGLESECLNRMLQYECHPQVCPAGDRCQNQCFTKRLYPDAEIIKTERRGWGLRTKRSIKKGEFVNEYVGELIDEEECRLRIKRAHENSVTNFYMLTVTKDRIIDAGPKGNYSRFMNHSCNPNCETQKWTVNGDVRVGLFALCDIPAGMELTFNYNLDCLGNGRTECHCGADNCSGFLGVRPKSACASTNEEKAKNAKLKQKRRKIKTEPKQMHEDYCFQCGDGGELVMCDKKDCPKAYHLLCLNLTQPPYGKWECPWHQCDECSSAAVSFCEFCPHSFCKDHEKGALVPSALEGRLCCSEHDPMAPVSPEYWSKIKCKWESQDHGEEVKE
Procedure: as §1

SET8 = target: T6, SET8 (Homo sapiens, UniProt Q9NQR1); assay: Methyltransferase inhibition panel: SET8; conditions: control compound; substrate Nucleosomes 0.05 mg/mL
T6 sequence (Q9NQR1 1-393): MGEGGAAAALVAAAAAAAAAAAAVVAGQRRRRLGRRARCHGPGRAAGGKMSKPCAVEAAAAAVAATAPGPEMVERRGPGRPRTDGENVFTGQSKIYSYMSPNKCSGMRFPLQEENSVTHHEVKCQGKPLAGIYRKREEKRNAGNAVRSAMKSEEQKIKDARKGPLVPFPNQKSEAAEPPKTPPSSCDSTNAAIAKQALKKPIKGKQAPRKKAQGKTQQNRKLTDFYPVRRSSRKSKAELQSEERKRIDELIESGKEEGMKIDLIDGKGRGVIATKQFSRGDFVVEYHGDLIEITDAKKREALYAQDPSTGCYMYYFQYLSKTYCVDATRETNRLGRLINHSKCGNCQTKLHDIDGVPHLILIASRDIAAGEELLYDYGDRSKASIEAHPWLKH
Procedure: as §1

Sequence of PRMT3 (O60678 whole entry): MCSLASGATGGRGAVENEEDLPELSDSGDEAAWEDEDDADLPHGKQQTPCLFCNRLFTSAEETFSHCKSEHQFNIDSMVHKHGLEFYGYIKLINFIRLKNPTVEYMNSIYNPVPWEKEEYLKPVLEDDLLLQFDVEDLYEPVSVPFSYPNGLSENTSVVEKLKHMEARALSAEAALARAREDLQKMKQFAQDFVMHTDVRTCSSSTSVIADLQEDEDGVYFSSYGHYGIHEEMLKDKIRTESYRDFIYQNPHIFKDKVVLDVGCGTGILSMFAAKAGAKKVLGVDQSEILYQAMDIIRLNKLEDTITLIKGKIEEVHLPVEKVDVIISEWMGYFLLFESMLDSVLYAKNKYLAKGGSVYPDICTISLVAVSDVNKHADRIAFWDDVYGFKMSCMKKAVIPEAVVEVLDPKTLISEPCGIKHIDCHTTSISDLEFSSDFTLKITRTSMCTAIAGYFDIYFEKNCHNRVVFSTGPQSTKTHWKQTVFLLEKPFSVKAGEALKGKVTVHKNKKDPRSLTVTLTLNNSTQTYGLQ
Sequence of SUV420H1TV2 (Q4FZB7 1-393 isoform Q4FZB7-2): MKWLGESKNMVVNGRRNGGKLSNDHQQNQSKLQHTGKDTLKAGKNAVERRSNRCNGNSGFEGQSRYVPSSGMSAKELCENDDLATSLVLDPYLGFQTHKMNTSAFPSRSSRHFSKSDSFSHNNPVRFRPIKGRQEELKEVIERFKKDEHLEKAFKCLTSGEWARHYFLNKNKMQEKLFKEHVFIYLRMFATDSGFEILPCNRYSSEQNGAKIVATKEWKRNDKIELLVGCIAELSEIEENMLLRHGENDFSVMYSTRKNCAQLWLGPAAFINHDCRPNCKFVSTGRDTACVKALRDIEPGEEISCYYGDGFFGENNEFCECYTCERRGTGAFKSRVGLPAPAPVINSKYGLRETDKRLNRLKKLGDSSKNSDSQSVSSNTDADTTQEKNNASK
Sequence of SETD2 (Q9BYW2 whole entry): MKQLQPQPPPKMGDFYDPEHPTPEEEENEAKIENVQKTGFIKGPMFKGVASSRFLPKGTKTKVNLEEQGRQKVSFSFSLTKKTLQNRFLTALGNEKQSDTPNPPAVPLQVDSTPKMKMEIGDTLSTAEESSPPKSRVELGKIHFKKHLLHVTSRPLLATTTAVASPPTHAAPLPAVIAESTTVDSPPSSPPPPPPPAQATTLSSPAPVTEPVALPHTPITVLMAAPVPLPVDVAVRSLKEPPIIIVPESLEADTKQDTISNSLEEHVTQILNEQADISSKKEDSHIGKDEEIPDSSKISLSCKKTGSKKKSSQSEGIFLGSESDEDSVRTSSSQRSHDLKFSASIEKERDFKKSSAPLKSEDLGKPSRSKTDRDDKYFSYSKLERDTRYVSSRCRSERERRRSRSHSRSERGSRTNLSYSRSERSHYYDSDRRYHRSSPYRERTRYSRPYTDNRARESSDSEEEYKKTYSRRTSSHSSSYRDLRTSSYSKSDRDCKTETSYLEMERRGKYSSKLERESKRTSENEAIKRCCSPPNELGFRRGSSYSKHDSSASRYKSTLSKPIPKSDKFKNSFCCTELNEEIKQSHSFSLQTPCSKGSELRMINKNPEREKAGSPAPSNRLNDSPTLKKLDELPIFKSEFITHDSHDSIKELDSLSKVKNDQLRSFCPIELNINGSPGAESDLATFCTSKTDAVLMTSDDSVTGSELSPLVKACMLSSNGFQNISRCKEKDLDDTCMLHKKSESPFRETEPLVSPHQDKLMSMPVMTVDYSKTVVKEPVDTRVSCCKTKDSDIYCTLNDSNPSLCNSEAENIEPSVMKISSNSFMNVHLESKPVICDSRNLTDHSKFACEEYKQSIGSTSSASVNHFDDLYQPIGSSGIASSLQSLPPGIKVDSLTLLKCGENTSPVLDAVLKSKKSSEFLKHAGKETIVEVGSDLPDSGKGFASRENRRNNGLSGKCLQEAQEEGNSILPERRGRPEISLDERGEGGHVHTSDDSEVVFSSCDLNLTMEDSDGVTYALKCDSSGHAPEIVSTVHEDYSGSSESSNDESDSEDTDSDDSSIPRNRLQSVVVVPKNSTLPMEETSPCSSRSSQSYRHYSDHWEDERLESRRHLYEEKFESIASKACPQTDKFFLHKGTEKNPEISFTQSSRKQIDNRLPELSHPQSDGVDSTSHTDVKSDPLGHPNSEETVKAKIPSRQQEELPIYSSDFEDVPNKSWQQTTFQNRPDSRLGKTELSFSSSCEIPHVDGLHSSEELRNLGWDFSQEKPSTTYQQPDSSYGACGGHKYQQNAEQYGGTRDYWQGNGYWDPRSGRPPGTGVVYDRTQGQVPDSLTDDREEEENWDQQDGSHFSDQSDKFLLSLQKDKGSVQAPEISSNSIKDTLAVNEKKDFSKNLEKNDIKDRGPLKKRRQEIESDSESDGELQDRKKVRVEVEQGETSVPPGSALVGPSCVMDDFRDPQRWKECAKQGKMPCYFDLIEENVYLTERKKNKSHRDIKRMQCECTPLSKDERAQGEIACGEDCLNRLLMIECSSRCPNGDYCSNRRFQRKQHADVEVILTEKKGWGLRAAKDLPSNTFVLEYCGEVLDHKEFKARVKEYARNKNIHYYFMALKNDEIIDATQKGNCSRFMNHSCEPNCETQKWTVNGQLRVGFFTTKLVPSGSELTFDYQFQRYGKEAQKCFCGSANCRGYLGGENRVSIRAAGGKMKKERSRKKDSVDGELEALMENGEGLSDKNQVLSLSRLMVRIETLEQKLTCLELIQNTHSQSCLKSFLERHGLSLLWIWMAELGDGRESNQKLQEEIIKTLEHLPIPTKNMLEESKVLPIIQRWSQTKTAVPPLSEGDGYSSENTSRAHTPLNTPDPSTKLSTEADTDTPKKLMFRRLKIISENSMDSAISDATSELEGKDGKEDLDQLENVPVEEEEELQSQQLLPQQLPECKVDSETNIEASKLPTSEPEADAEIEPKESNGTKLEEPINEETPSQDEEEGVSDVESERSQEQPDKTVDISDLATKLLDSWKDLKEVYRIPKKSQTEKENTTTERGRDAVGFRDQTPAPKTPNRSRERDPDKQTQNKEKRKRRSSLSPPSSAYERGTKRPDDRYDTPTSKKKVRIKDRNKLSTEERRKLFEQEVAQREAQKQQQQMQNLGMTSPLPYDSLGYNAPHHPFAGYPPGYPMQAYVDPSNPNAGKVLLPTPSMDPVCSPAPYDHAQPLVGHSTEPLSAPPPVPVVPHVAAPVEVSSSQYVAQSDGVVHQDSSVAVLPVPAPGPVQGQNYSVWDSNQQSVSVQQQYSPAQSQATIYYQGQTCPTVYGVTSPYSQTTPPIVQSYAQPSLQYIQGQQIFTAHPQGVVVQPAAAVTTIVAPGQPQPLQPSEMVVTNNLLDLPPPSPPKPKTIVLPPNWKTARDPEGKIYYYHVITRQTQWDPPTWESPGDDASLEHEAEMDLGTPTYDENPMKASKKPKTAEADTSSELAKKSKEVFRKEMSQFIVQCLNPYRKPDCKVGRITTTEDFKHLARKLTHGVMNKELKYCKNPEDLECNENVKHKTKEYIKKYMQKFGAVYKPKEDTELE
Sequence of MLL1 Complex (Q03164 3745-3969): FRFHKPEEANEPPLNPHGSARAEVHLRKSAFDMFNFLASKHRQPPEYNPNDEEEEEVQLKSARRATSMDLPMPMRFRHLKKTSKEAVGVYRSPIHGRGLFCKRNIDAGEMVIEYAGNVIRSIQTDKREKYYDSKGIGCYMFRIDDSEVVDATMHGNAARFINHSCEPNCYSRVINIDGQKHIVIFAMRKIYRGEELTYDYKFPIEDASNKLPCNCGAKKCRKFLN
Sequence of MLL1 Complex (Q9UBL3 96-628, further chain): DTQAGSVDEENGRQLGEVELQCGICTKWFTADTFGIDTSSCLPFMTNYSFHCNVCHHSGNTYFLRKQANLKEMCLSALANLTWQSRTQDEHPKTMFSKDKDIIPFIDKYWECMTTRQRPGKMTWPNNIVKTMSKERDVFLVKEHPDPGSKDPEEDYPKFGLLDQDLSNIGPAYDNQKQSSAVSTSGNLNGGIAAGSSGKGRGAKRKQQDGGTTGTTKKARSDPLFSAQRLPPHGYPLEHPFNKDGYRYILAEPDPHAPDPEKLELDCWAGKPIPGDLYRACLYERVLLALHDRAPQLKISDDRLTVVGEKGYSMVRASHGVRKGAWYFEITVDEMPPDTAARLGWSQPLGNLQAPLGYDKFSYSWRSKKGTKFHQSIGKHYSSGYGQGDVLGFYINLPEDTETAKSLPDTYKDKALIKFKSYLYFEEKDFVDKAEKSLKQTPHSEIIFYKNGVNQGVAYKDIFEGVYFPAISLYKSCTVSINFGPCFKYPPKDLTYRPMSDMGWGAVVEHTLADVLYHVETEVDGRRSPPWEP
Sequence of MLL1 Complex (Q9C005 whole entry, further chain): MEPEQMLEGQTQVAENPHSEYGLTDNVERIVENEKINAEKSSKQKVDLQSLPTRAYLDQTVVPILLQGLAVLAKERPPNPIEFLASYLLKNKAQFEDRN
Sequence of MLL1 Complex (Q15291 whole entry, further chain): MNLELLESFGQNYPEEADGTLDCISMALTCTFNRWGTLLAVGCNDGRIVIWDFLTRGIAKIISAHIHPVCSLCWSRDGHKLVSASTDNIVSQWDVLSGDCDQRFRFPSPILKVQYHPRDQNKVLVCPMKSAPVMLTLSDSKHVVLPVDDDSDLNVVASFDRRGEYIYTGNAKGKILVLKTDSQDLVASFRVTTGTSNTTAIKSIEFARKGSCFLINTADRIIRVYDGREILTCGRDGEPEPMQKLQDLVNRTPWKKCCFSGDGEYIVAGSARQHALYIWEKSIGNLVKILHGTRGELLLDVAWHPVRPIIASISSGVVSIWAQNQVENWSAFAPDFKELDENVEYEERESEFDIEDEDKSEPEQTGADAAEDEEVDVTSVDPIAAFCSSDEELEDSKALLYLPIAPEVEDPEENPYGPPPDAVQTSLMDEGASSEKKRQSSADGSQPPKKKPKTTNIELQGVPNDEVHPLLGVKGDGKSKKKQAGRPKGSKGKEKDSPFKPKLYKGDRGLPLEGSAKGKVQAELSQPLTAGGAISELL

Nc1ncnc2c1ncn2[C@@H]1O[C@H](CSCC[C@H](N)C(=O)O)[C@@H](O)[C@H]1O [SAH, reference compound]
IC50 (DNMT3a): 154 nM | IC50 (DNMT3b): 37.9 nM | IC50 (DNMT3b/3L): 19.3 nM | IC50 (GLP): 553 nM | IC50 (METTL21A): 64600 nM | IC50 (MLL1 Complex): 205 nM | IC50 (MLL2 Complex): 21200 nM | IC50 (MLL3 Complex): 18900 nM | IC50 (MLL4 Complex): 816 nM | IC50 (NRMT1): 310 nM | IC50 (NSD1): 7510 nM | IC50 (PRMT3): 870 nM | IC50 (PRMT6): 204 nM | IC50 (SET1b Complex): 8590 nM | IC50 (SET7/9): 82900 nM | IC50 (SETDB1): 1040 nM | IC50 (SETD2): 3060 nM | IC50 (SMYD3): 14200 nM | IC50 (SUV39H2): 44300 nM | IC50 (SUV420H1TV2): 117000 nM

CN1C(=O)[C@@]23C[C@]4([C@]56C[C@@]78SS[C@@](CO)(C(=O)N7[C@H]5Nc5ccccc56)N(C)C8=O)c5ccccc5N[C@@H]4N2C(=O)[C@]1(CO)SS3 [Chaetocin, reference compound]
IC50 (ASH1L): 30.8 nM | IC50 (NSD3): 85.2 nM

Cc1ccc(NC2=CC(=O)c3sc(C)nc3C2=O)cc1 [Ryuvidine, reference compound]
IC50 (SET8): 109 nM
